Measured values as given in patent US9540323B2 (BRISTOL-MYERS SQUIBB COMPANY, priority 2012, dated 2017).

Columns and labels:
[1] = molecular target: cloned human P2Y1 receptors (Homo sapiens (Human), UniProt P47900); assay: Binding Assay B - Scintillation Proximity Assay (SPA) for P2Y1 binding, [33P] 2MeS-ADP; settings: SPA, 0.3 nM [33P] 2MeS-ADP, Cheng-Prusoff; read-out: P2Y1 Ki (nM) using binding assay B
Protocol: Binding Assay B—Scintillation Proximity Assay (SPA) for P2Y1 Binding
A SPA membrane binding assay was used to identify inhibitors of [^33P] […] Reactions were allowed to proceed to completion at room temperature for 1 hour followed by centrifugation of the plate for 5 min. About 40 μL of the aqueous solution was aspirated. Plates were sealed and the [^33P]

[2] = system: human platelet rich plasma (PRP); assay: ADP induced platelet aggregation assay; settings: Homo sapiens, Platelet, 5 min, read-out: PA IC50 (μM) @ 10 μM ADP, human PRP, 10 μM ADP, AUC at 5 minute

cloned human P2Y1 receptors, sequence (P47900 whole entry): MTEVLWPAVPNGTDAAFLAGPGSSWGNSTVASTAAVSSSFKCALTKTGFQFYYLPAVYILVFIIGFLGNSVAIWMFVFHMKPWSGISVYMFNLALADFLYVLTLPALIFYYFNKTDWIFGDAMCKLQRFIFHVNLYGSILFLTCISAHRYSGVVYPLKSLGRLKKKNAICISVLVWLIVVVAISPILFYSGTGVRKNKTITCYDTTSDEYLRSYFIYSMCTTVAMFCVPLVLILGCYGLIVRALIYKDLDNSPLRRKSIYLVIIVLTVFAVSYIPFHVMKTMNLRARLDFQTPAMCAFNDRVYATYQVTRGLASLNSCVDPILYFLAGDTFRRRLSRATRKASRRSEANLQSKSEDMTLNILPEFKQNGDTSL

| Compound | Ki [1] [nM] | IC50 [2] [µM] |
| --- | --- | --- |
| CC1(C)CN(c2ccccc2NC(=O)Nc2ccc(OC(F)(F)F)cc2)c2c(O)cc(F)c(-c3cccc(CN4CCOCC4)c3)c21 [Example 251, 1-(2-(5-Fluoro-7-hydroxy-3,3-dimethyl-4-(3-(morpholinomethyl)phenyl)indolin-1-yl)phenyl)-3-(4-(trifluoromethoxy)phenyl)urea] | 16.9 | 0.93 |
| CC(C)n1nc(-c2c(F)cc(O)c3c2C(C)(C)CN3c2ccccc2NC(=O)Nc2ccc(OC(F)(F)F)cc2)cc1C(F)(F)F [Example 271, 1-(2-(5-Fluoro-7-hydroxy-4-(1-isopropyl-5-(trifluoromethyl)-1H-pyrazol-3-yl)-3,3-dimethylindolin-1-yl)phenyl)-3-(4-(trifluoromethoxy)phenyl)urea] | 12.4 | 0.07 |
| CSc1ncc(-c2c(F)cc(O)c3c2C(C)(C)CN3c2ccccc2NC(=O)Nc2ccc(OC(F)(F)F)cc2)cn1 [Example 189, 1-(2-(5-Fluoro-7-hydroxy-3,3-dimethyl-4-(2-(methylthio)pyrimidin-5-yl)indolin-1-yl)phenyl)-3-(4-(trifluoromethoxy)phenyl)urea] | 7.2 | 0.25 |
| CC1(C)CN(c2ccccc2NC(=O)Nc2ccc(OC(F)(F)F)cc2)c2c(O)cc(F)c(-c3ccc(C(F)(F)F)cc3)c21 [Example 216, 1-(2-(5-Fluoro-7-hydroxy-3,3-dimethyl-4-(4-(trifluoromethyl)phenyl)indolin-1-yl)phenyl)-3-(4-(trifluoromethoxy)phenyl)urea] | 54.7 | 0.14 |
| CC1(C)CN(c2ccccc2NC(=O)Nc2ccc(OC(F)(F)F)cc2)c2c(O)ccc(-c3cnccn3)c21 [Example 132, 1-(2-(7-Hydroxy-3,3-dimethyl-4-(pyrazin-2-yl)indolin-1-yl)phenyl)-3-(4-(trifluoromethoxy)phenyl)urea] | 18.8 | 1.29 |
| CC1(C)CN(c2ccccc2NC(=O)Nc2ccc(OC(F)(F)F)cc2)c2c(O)ccc(-c3nc4cccnc4o3)c21 [Example 89, 1-(2-(7-Hydroxy-3,3-dimethyl-4-(oxazolo[5,4-b]pyridin-2-yl)indolin-1-yl)phenyl)-3-(4-(trifluoromethoxy)phenyl)urea] | 12.3 | 0.99 |
| COC(=O)c1ccc(O)c2c1C(C)(C)CN2c1ccccc1NC(=O)Nc1ccc(OC(F)(F)F)cc1 [Example 80, Methyl 7-hydroxy-3,3-dimethyl-1-(2-(3-(4-(trifluoromethoxy)phenyl)ureido)phenyl)indoline-4-carboxylate] | 9 | 0.84 |
| CC1(C)CN(c2ccccc2NC(=O)Nc2ccc(OC(F)(F)F)cc2)c2c(O)ccc(-c3nc4ccccc4s3)c21 [Example 83] | 14.7 | 0.86 |
| CC1(C)CN(c2ccccc2NC(=O)Nc2ccc(OC(F)(F)F)cc2)c2c(O)ccc(C#N)c21 [Example 47, 1-(2-(4-Cyano-7-hydroxy-3,3-dimethylindolin-1-yl)phenyl)-3-(4-(trifluoromethoxy)phenyl)urea] | 18.6 | 3.35 |
| Cc1nc(NC(=O)Nc2ccccc2N2CC(C)(C)c3c(-c4ccc(F)cc4)ccc(O)c32)cs1 [Example 201, 1-(2-(4-(4-Fluorophenyl)-7-hydroxy-3,3-dimethylindolin-1-yl)phenyl)-3-(2-methylthiazol-4-yl)urea] | 5.8 | 0.43 |
| CC(C)Cn1cc(-c2c(F)cc(O)c3c2C(C)(C)CN3c2ccccc2NC(=O)Nc2ccc(OC(F)(F)F)cc2)cn1 [Example 184, 1-(2-(5-Fluoro-7-hydroxy-4-(1-isobutyl-1H-pyrazol-4-yl)-3,3-dimethylindolin-1-yl)phenyl)-3-(4-(trifluoromethoxy)phenyl)urea] | 10.7 | 0.26 |
| CCC1(CC)CN(c2ccccc2NC(=O)Nc2ccc(C(C)(C)C)cc2)c2c1ccc(F)c2O [Example 38, 1-(4-tert-Butylphenyl)-3-(2-(3,3-diethyl-6-fluoro-7-hydroxyindolin-1-yl)phenyl)urea] | 14.8 | 0.43 |
